Where two headings read alike, the source gives them in different places. Where a SMILES comes first, the peptide text is derived from it. [ ]: non-standard residue; d: D form. dPhe(4-Cl) = N[C@H](Cc1ccc(Cl)cc1)C(=O)O; d2Nal = N[C@H](Cc1ccc2ccccc2c1)C(=O)O; dCit = NC(=O)NCCC[C@@H](N)C(=O)O; d3Pal = N[C@H](Cc1cccnc1)C(=O)O

For series [1] the following is noted: cited from earlier work; for Estimated Half Life: estimated circulation half-life.
Series [2] concerns GnRH receptors expressed on the surface of cultured cancer cells (OC-3-VGH). As to the kind of experiment: Competitive binding assay on microwells coated with OC-3-VGH cancer cells. Further details: species or system human. To be noted: for competition with mGHR106 binding to OC-3-VGH coated microwells: FIG. 1A, mGHR106 0.50 or 0.25 μg/ml; for competition with hGHR106 binding to OC-3-VGH coated microwells: FIG. 1B, peptides each at 1 μg/mL. Here is the method:
Competitive binding assays were carried out according to accepted protocols, e.g. as described in U.S. Pat. No. 8,361,793. […] The N1-29 oligopeptides are derived from the N-terminal extracellular domains of GnRH receptors from each species. The amino acid sequence of each of Hu-P, Mo-P and Mu-P are shown as SEQ ID NO:1, SEQ ID NO:2 and SEQ ID NO:3 respectively in FIG. 3.
The white bars and black bars in FIG. 1A represent the different concentrations of mGHR106 (0.50 μg/ml and 0.25 μg/ml, respectively) used in each assay. […] Goat anti-human IgG-ALP (alkaline phosphatase labeled) was used as the probe, with error bars for duplicate assays indicated.

The subject of another series is OC-3-VGH cancer cells. Briefly: Comparative gene regulation study in cancer cells. Type of series: cell-based, human. To be noted: FIG. 4; upon ligand treatment of cancer cells. The text has this: Comparative gene regulation upon administration of hGHR106 or the decapeptide GnRH analog antide was examined using conventional protocols, e.g. as described in U.S. Pat. No. 8,361,793. […] Expressions of a number of selected genes involved in the proliferation or survival of cancer cells were compared. The selected genes include: GnRH, GnRHR, P0, P1, P2, L37, and EGF, c-fos, P21 and cyclin D1. P0, P1, P2, and L37 are ribosomal proteins.

In series [3] the test system is OC-3-VGH, PC-3, A549 and MDA-MB-435 cancer cells. As to the kind of experiment: TUNEL apoptosis assay of cultured and treated cancer cells. Type of series: cell-based. Particulars: co-incubation 24 to 72 hours, compared on a molar basis, FIGS. 2A and 2B. The protocol:
In order to compare the anti-proliferative effects (or apoptosis) between mGHR106 or hGHR106 and antide on cancer cells, In Situ Cell Death Detection Kit, POD (Roche, Canada) was employed for detection and quantitation of apoptosis of cultured and treated cancer cells in vitro. Briefly cancer cells were cultured in RPMI-1640 medium at 37° C. in a CO2 (5%) incubator for 24 and/or 48 hours until all cancer cells are attached to microwells. Following removal of cell culture medium, fresh serum-free medium was added for an additional 3 hours incubation in a CO2 incubator.
After the serum-free starvation period, the cells were incubated in fresh medium containing 10% fetal calf serum, and hGHR106, mGHR106 or antide of known concentration was added for co-incubation of 24 to 72 hours. As the negative control, normal mouse IgG or normal human IgG of the same concentration was used for the same incubation period.
At the end of incubation, the attached cells were removed from tissue culture wells by appropriate cell detachment solution. Apoptosis of treated cancer cells was quantitatively determined by TUNEL assay with the instructions provided by Cell Death Detection Kit, POD (Roche, Canada). Percent increases of cells with apoptosis after treatments with any one of hGHR106, mGHR106 and antide were obtained by subtracting spontaneous apoptosis from the negative control. […]

[4] abbreviates: clinically used antibodies and GnRH decapeptide analogs.

For the compound `CC(=O)N[C@H](Cc1ccc2ccccc2c1)C(=O)N[C@H](Cc1ccc(Cl)cc1)C(=O)N[C@H](Cc1cccnc1)C(=O)N[C@@H](CO)C(=O)N[C@@H](Cc1ccc(O)cc1)C(=O)N[C@H](CCCNC(N)=O)C(=O)N[C@@H](CC(C)C)C(=O)N[C@@H](CCCNC(=N)N)C(=O)N1CCC[C@H]1C(=O)N[C@H](C)C(N)=O` [Cetrorelix] (Ac-[d2Nal][dPhe(4-Cl)][d3Pal]SY[dCit]LRP[dA]-NH2), the “Estimated Half Life” value in series [1] (setting [4]) was 10 to 63 h.

Regarding Beracizumab, in series [1] (setting [4]), the “Estimated Half Life” value is 480 h.

As to “Gonadotropin-releasing hormone [Native GnRH]”, the “Estimated Half Life” value in series [1] (native GnRH) is 0.033 to 0.067 h. In addition, in series [1] (human circulation), the “half-life in human circulation” value is 2 to 4 min. For the compound “Hu-P: N1-29 oligopeptide of N-terminal extracellular domain of human GnRH receptor, SEQ ID NO:1 (MANNASLEQDPNHCSAINNSIPLIQGKLPT; listed as Mus musculus)”, in series [2], the “competition with mGHR106 binding to OC-3-VGH coated microwells” value (from here on “competition with mGHR106 binding”) was “compete” and the “competition with hGHR106 binding to OC-3-VGH coated microwells” value (“competition with hGHR106 binding” for short) is listed as “compete”. Regarding Luprorelin, the “Estimated Half Life” value in series [1] (setting [4]) was 3 h. Take “Mo-P: N1-29 oligopeptide of N-terminal extracellular domain of monkey GnRH receptor, SEQ ID NO:2 (MANSALPEQNQNHCSVINNSIPLMQGNLPT; Pan troglodytes)”: in series [2], the “competition with mGHR106 binding” value is given as “compete” and the “competition with hGHR106 binding” value was “compete”. Turning to “Mu-P: N1-29 oligopeptide of N-terminal extracellular domain of mouse GnRH receptor, SEQ ID NO:3 (MANSASPEQNQNHCSAINNSIPLMQGNLPT; listed as Homo sapiens)”, in series [2], the “competition with mGHR106 binding” value was “not” and the “competition with hGHR106 binding” value is listed as “not”. Turning to Panitumumab, the “Estimated Half Life” value in series [1] (setting [4]) was 180 h.

As for antide, in the series with OC-3-VGH cancer cells, the “Cyclin D1 expression” value is “downregulated”, the EGF expression result was “downregulated”, the “GnRH expression (up-regulation)” value is given as 50% and the “expression of the GnRH receptor (GnRHR)” value is “unchanged”. In addition, the “induced apoptosis (percent increase of cells with apoptosis)” value in series [3] is given as “very similar degrees of induced apoptosis”.
